Results: ChEMBL document CHEMBL1201862, “PubChem BioAssay data set” (2004)
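Growth conditions: 96-well plates. Treatment: test compound, 48 hours, 5 concentrations. Analysis: linear interpolation between bracketing concentrations; unreached endpoints set to highest concentration. GI50: concentration for 50% inhibition of growth.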 Active and inactive are the calls of the source. No stated cut-off is given here; in the data, active = GI50 up to about 1.1 µM and inactive = higher.

Key:
Assay in all cases: growth of human tumour cells (NCI), 48 h
A498 = system: A498
A549 = system: A549
COLO 205 = system: COLO 205
EKVX = system: EKVX
HCT-15 = system: HCT-15
HL-60 = system: HL-60
HT-29 = system: HT-29
K562 = system: K562
OVCAR-4 = system: OVCAR-4
OVCAR-5 = system: OVCAR-5
RPMI-8226 = system: RPMI-8226
SF-268 = system: SF-268
SF-539 = system: SF-539
SK-MEL-2 = system: SK-MEL-2
SK-MEL-5 = system: SK-MEL-5
SNB-75 = system: SNB-75
SW-620 = system: SW-620
SR = system: SR

Row | Structure (SMILES) | GI50 (A498) | GI50 (A549) | GI50 (COLO 205) | GI50 (EKVX) | GI50 (HCT-15) | GI50 (HL-60) | GI50 (HT-29) | GI50 (K562) | GI50 (OVCAR-4) | GI50 (OVCAR-5) | GI50 (RPMI-8226) | GI50 (SF-268) | GI50 (SF-539) | GI50 (SK-MEL-2) | GI50 (SK-MEL-5) | GI50 (SNB-75) | GI50 (SW-620) | GI50 (SR)
1 | CS/C(=N/C(=O)c1ccccc1)SCCS/C(=N\C(=O)c1ccccc1)SC | > 100 µM (inactive) | > 100 µM (inactive) | > 100 µM (inactive) | > 100 µM (inactive) | > 100 µM | > 100 µM (inactive) | > 100 µM (inactive) | > 100 µM (inactive) | 25 µM (inactive) | > 100 µM (inactive) | > 100 µM (inactive) | > 100 µM (inactive) | 65.5 µM (inactive) | > 100 µM (inactive) | > 100 µM (inactive) | 33.8 µM (inactive) | > 100 µM (inactive) | –
2 | C=CCNC(=O)ON1C(=O)CCC1=O | > 100 µM (inactive) | > 100 µM (inactive) | > 100 µM (inactive) | > 100 µM (inactive) | > 100 µM | > 100 µM (inactive) | > 100 µM (inactive) | > 100 µM (inactive) | > 100 µM (inactive) | > 100 µM (inactive) | > 100 µM (inactive) | > 100 µM (inactive) | > 100 µM (inactive) | > 100 µM (inactive) | – | > 100 µM (inactive) | > 100 µM (inactive) | –
3 | O=C1CCCCC1CN1CCCC1 (stereo not drawn) | > 100 µM (inactive) | > 100 µM (inactive) | > 100 µM (inactive) | > 100 µM (inactive) | > 100 µM | > 10 µM (inactive) | > 100 µM (inactive) | > 100 µM (inactive) | > 100 µM (inactive) | > 100 µM (inactive) | 84.3 µM (inactive) | > 100 µM (inactive) | – | > 100 µM (inactive) | > 100 µM (inactive) | > 100 µM (inactive) | > 100 µM (inactive) | 38.7 µM (inactive)
4 | CC(=O)O[C@H]1CCC2[C@@H]3CCC4C(=O)c5oncc5C[C@]4(C)C3CC[C@@]21C (stereo partly drawn) | 21.7 µM (inactive) | > 100 µM (inactive) | > 100 µM (inactive) | 22.4 µM (inactive) | > 100 µM | > 100 µM (inactive) | > 100 µM (inactive) | > 100 µM (inactive) | 5.21 µM (inactive) | > 100 µM (inactive) | > 100 µM (inactive) | > 100 µM (inactive) | > 10 µM (inactive) | > 100 µM (inactive) | > 100 µM (inactive) | 50.2 µM (inactive) | > 100 µM (inactive) | –
5 | Cc1ccc(Sc2cc([N+](=O)[O-])cc(Sc3ccc(C)cc3)c2Sc2ccc(C)cc2)cc1 | > 100 µM (inactive) | > 100 µM (inactive) | > 100 µM (inactive) | > 100 µM (inactive) | > 100 µM | > 100 µM (inactive) | > 100 µM (inactive) | 48.8 µM (inactive) | – | > 100 µM (inactive) | > 100 µM (inactive) | > 100 µM (inactive) | > 100 µM (inactive) | > 100 µM (inactive) | > 100 µM (inactive) | 53.5 µM (inactive) | > 100 µM (inactive) | –
6 | COC(=O)C1=C(SC)SC2(C(=O)OC)C3C=C(C)C4C(N13)C42C(=O)OC (stereo not drawn) | – | > 100 µM (inactive) | > 100 µM (inactive) | > 100 µM (inactive) | > 100 µM | > 100 µM (inactive) | > 100 µM (inactive) | > 100 µM (inactive) | – | > 100 µM (inactive) | > 100 µM (inactive) | > 100 µM (inactive) | > 100 µM (inactive) | > 100 µM (inactive) | 83.6 µM (inactive) | > 100 µM (inactive) | > 100 µM (inactive) | > 100 µM (inactive)
7 | CC(C)c1cccc(C(C)C)c1N1C(=O)C(=O)C(c2nc3ccccc3o2)C(=O)C1=O | > 100 µM (inactive) | > 100 µM (inactive) | 32.8 µM (inactive) | > 100 µM (inactive) | 49.7 µM | 30.3 µM (inactive) | 30.3 µM (inactive) | 28.2 µM (inactive) | 78.2 µM (inactive) | > 100 µM (inactive) | 35.4 µM (inactive) | 47.2 µM (inactive) | > 100 µM (inactive) | > 100 µM (inactive) | 38.5 µM (inactive) | 26.2 µM (inactive) | 48.1 µM (inactive) | –
8 | COC1=CC(O)(CC(N)=O)c2ccccc2C1=O (stereo not drawn) | > 100 µM (inactive) | > 100 µM (inactive) | > 100 µM (inactive) | > 100 µM (inactive) | > 100 µM | > 100 µM (inactive) | > 100 µM (inactive) | > 100 µM (inactive) | > 100 µM (inactive) | > 100 µM (inactive) | > 100 µM (inactive) | > 100 µM (inactive) | – | > 100 µM (inactive) | > 100 µM (inactive) | > 100 µM (inactive) | > 100 µM (inactive) | > 100 µM (inactive)
